Data reported in patent publication US8778402B2, “Dry powder formulation comprising a corticosteroid and a beta-adrenergic for administration by inhalation” (Chiesi Farmaceutici S.p.A., priority 2012, dated 2014).

Experiment: Particle size distribution of micronised BDP by laser diffraction (Malvern)
Type: physicochemical
Details: micronised beclometasone dipropionate; volume diameter of 10% of particles
Experimental: The size of the particles of the active is determined by measuring the characteristic equivalent sphere diameter, known as volume diameter, by laser diffraction. In the reported examples, the volume diameter has been determined using a Malvern apparatus. However, other equivalent apparatus may be used by the skilled person in the art.
The particle size was determined by laser diffraction using a Malvern apparatus. The parameter taken into consideration was the VD in microns of 10%, 50% and 90% of the particles expressed as d(v,0.1), d(v, 0.5) and d(v, 0.9), respectively, which correspond to the mass diameter assuming a size independent density for the particles. The span [d(v,0.9)−d(v,0.1)]/d(v,0.5) is also reported. The Specific Surface Area (SSA) was determined by BET nitrogen adsorption using a Coulter SA3100 apparatus as a mean of three determinations.

d (v, 0.1) [μm] | SMILES
0.91 | CCC(=O)OCC(=O)[C@@]1(OC(=O)CC)[C@@H](C)C[C@H]2[C@@H]3CCC4=CC(=O)C=C[C@]4(C)[C@@]3(Cl)[C@@H](O)C[C@@]21C [Batch 4, beclometasone dipropionate]
0.96 | CCC(=O)OCC(=O)[C@@]1(OC(=O)CC)[C@@H](C)C[C@H]2[C@@H]3CCC4=CC(=O)C=C[C@]4(C)[C@@]3(Cl)[C@@H](O)C[C@@]21C [Batch 2, beclometasone dipropionate]
0.95 | CCC(=O)OCC(=O)[C@@]1(OC(=O)CC)[C@@H](C)C[C@H]2[C@@H]3CCC4=CC(=O)C=C[C@]4(C)[C@@]3(Cl)[C@@H](O)C[C@@]21C [Batch 3, beclometasone dipropionate]
0.86 | CCC(=O)OCC(=O)[C@@]1(OC(=O)CC)[C@@H](C)C[C@H]2[C@@H]3CCC4=CC(=O)C=C[C@]4(C)[C@@]3(Cl)[C@@H](O)C[C@@]21C [Batch 1, beclometasone dipropionate]
